Numbered stars: 1 amine (or outer) side, 2 acyl side, 3 side chain; on linkers, the order of the positions; unused ones are H or OH. Bridge positions count the residues as written; N and C are the ends. Square brackets hold non-standard residues; d marks the D form. Peptide text beside a SMILES is read from it. Adda = CO[C@@H](Cc1ccccc1)[C@@H](C)/C=C(C)/C=C/[C@H](N[*:1])[C@H](C)C(=O)[*:2]; dAsp(3S-Me) = C[C@H](C(=O)[*:3])[C@@H](N[*:1])C(=O)[*:2]; d(γGlu) = O=C(O)[C@@H](CCC(=O)[*:2])N[*:1]; NMeDha = C=C(NC)C(=O)O
Tests used:
[1] = Percentage inhibition of murine protein phosphatase 2A at 1 mM.
[2] = Compound was tested for inhibition of protein phosphatase 2A (PP2A).

For `C[C@H](NC(=O)C[C@H](NC(=O)[C@H](C)NC(=O)CC[C@@H](NC(=O)CCN)C(=O)O)C(=O)O)C(=O)O`, the inhibition [1] was 19%.

Molecule `CC(C)C[C@H](NC(=O)[C@@H](C)N)C(=O)N[C@@H](CC(=O)N[C@@H](C)C(=O)N[C@@H](C)C(=O)N[C@@H](CCC(=O)N[C@@H](C)C(=O)O)C(=O)O)C(=O)O` has an inhibition [1] of 22%.

In the case of `CC(C)C[C@H]1NC(=O)[C@H](C)NC(=O)[C@@H](CC(=O)O)NC(=O)[C@H](CCC(=O)O)NC(=O)CCNC(=O)[C@@H](C)NC(=O)[C@H](CC(=O)O)NC1=O`, the inhibition [1] is reported as 21%.

For `CC(C)C[C@H](NC(=O)[C@@H](C)N)C(=O)NCCC(=O)N[C@@H](C)C(=O)N[C@@H](CC(=O)O)C(=O)N[C@@H](CCC(=O)N[C@@H](C)C(=O)O)C(=O)O`, the inhibition [1] was 12%.

In the case of `CC(C)C[C@H]1NC(=O)[C@H](C)NC(=O)[C@@H](CC(=O)O)NC(=O)CCCNC(=O)CCNC(=O)[C@@H](C)NC(=O)C[C@@H](C(=O)O)NC1=O`, the inhibition [1] is reported as 42%.

In the case of `C=C1C(=O)N[C@H](C)C(=O)N[C@@H](CC(C)C)C(=O)N[C@@H](C(=O)O)[C@H](C)C(=O)N[C@@H](CCCNC(=N)N)C(=O)N[C@@H](/C=C/C(C)=C/[C@H](C)[C@H](Cc2ccccc2)OC)[C@H](C)C(=O)N[C@@H](C(=O)O)CCC(=O)N1C` [MICROCYSTIN-LR] (R[Adda][d(γGlu)][NMeDha][dA]L[dAsp(3S-Me)]-OH; lactam N-7), the IC50 [2] is reported as 0.2 mM.

`CC(C)C[C@H](NC(=O)[C@@H](C)N)C(=O)N[C@H](CC(=O)O)C(=O)N[C@@H](C)C(=O)N[C@@H](CC(=O)O)C(=O)N[C@H](CCC(=O)O)C(=O)N[C@@H](C)C(=O)O` gave an inhibition [1] of 11%.

In the case of `CC(C)C[C@H](NC(=O)[C@@H](C)N)C(=O)N[C@@H](CC(=O)N[C@@H](C)C(=O)NCCC(=O)N[C@H](CCC(=O)N[C@@H](C)C(=O)O)C(=O)O)C(=O)O`, the inhibition [1] is reported as 12%.

In the case of `CC(C)C[C@@H]1NC(=O)[C@@H](C)NC(=O)[C@H](CC(=O)O)NC(=O)[C@@H](CCC(=O)O)NC(=O)[C@H](CS)NC(=O)[C@H](C)NC(=O)[C@@H](CC(=O)O)NC1=O`, the inhibition [1] is reported as 86% and the IC50 [2] is reported as 0.5 mM.

Molecule `CC(C)C[C@H](NC(=O)[C@@H](C)NC(=O)[C@H](C)NC(=O)CC[C@@H](NC(=O)CCN)C(=O)O)C(=O)N[C@H](CC(=O)N[C@@H](C)C(=O)O)C(=O)O` has an inhibition [1] of 15%.

Work on `CC(C)C[C@H](NC(=O)[C@@H](C)N)C(=O)N[C@@H](CC(=O)N[C@@H](C)C(=O)N[C@@H](CC(=O)O)C(=O)N[C@H](CCC(=O)N[C@@H](C)C(=O)O)C(=O)O)C(=O)O` yielded an inhibition [1] of 21%.

For `CC(C)C[C@H](NC(=O)[C@@H](C)NC(=O)[C@H](C)NC(=O)[C@@H](CCC(=O)O)NC(=O)[C@@H](N)CS)C(=O)N[C@H](CC(=O)O)C(=O)N[C@@H](C)C(=O)O`, the inhibition [1] was 22%.

In the case of `CC(C)C[C@H](NC(=O)[C@@H](C)N)C(=O)N[C@@H](CC(=O)N[C@@H](C)C(=O)N[C@@H](CS)C(=O)N[C@H](CCC(=O)N[C@@H](CC(=O)O)C(N)=O)C(=O)O)C(=O)O`, the inhibition [1] is reported as 18%.

`CC(C)C[C@H]1NC(=O)[C@H](C)NC(=O)[C@@H](CC(=O)O)NC(=O)CCCNC(=O)[C@@H](CS)NC(=O)[C@@H](C)NC(=O)C[C@@H](C(=O)O)NC1=O` gave an inhibition [1] of 45% and an IC50 [2] of 10 mM.

Work on `CC(C)C[C@H](NC(=O)[C@@H](C)NC(=O)[C@H](C)NC(=O)[C@@H](CCC(=O)O)NC(=O)CCN)C(=O)N[C@H](CC(=O)O)C(=O)N[C@@H](C)C(=O)O` yielded an inhibition [1] of 16%.

For `CC(C)C[C@H](NC(=O)[C@@H](C)NC(=O)[C@H](C)NC(=O)CC[C@@H](NC(=O)[C@@H](N)CS)C(=O)O)C(=O)N[C@H](CC(=O)N[C@@H](C)C(=O)O)C(=O)O`, the inhibition [1] was 19%.

With `CC(C)C[C@H](NC(=O)[C@@H](C)N)C(=O)N[C@H](CC(=O)O)C(=O)N[C@@H](C)C(=O)NCCC(=O)N[C@H](CCC(=O)O)C(=O)N[C@@H](CC(=O)O)C(N)=O` the inhibition [1] was 1%.

Work on `CC(C)C[C@H](NC(=O)[C@@H](C)N)C(=O)N[C@@H](CC(=O)N[C@@H](C)C(=O)NCCC(=O)N[C@H](CCC(=O)N[C@@H](CC(=O)O)C(N)=O)C(=O)O)C(=O)O` yielded an inhibition [1] of 11%.

With `C[C@H](NC(=O)[C@@H](CC(=O)O)NC(=O)[C@H](C)NC(=O)[C@@H](CCC(=O)O)NC(=O)CCN)C(=O)O` the inhibition [1] was 30% and the IC50 [2] was 10 mM.

In the case of `CC(C)C[C@H](NC(=O)[C@@H](C)N)C(=O)NCCC(=O)N[C@@H](C)C(=O)N[C@H](CC(=O)O)C(=O)N[C@H](CCC(=O)O)C(=O)N[C@@H](C)C(=O)O`, the inhibition [1] is reported as 14%.

Work on `CC(C)C[C@H](NC(=O)[C@@H](C)N)C(=O)N[C@H](CC(=O)O)C(=O)N[C@@H](C)C(=O)N[C@@H](CS)C(=O)N[C@H](CCC(=O)O)C(=O)N[C@@H](CC(=O)O)C(N)=O` yielded an inhibition [1] of 17%.

In the case of `CC(C)C[C@H]1NC(=O)[C@H](C)NC(=O)[C@@H](C)NC(=O)CC[C@@H](C(=O)O)NC(=O)CCNC(=O)[C@@H](C)NC(=O)C[C@@H](C(=O)O)NC1=O`, the inhibition [1] is reported as 3%.
